# Values of other authors, collected in PMC10444862, “Using macromolecular electron densities to improve the enrichment of active compounds in virtual screening” (Communications Chemistry, 2023).
# Test system: AMPC
# Conditions: activities reported in the DUD-E dataset; cited from earlier work
row,Structure (SMILES),label
1,"O=C(O)c1ccccc1S(=O)(=O)Nc1ccc(Cl)cc1 [109_49, O=C([O-])c1ccccc1S(=O)(=O)Nc1ccc(Cl)cc1]",active
2,"O=C(O)c1sccc1S(=O)(=O)Nc1ccccc1N1CCCCC1 [104_58, O=C([O-])c1sccc1S(=O)(=O)Nc1ccccc1N1CCCCC1]",active
3,"Cc1nc2ccc(P(=O)(O)O)cc2s1 [319_2, Cc1nc2ccc([P@](=O)([O-])O)cc2s1]",active
4,"Nc1onc(-c2ccc(Cl)cc2)c1C(=O)O [317_12, Nc1onc(-c2ccc(Cl)cc2)c1C(=O)[O-]]",active
5,"CSCC[C@@H](C(=O)O)N1C(=O)c2ccc(C(=O)O)cc2C1=O [212_4, CSCC[C@@H](C(=O)[O-])N1C(=O)c2ccc(C(=O)[O-])cc2C1=O]",active
